Columns and labels:
[1] = test system: non-expressing oocytes; type: cell-based, Xenopus laevis; settings: non-expressing oocytes, footnote b: highest intracellular concentration tested was 30 mM (solubility); for Trans-stimulation data: total [3H]CQ transport: normalised to the oocyte type control (control = 100)
Protocol: Unless specified otherwise, the transport assays were conducted over 1.5 h at 27.5 °C and the reaction buffer was ND96 (96 mM NaCl, 2 mM KCl, 1 mM MgCl2, 1.8 mM CaCl2, 10 mM MES and 10 mM Tris-base) at pH 5.5.
The intracellular concentrations were calculated using previous estimates of the volume of stage V–VI oocytes (~400 nL[60]). […] The oocytes were injected with VF-6 suspended in 25 nL ND96 buffer adjusted to pH 5.0, 5.5, 6.0 or 7.0, which corresponded to the injection of 2.5–250 fmol of H^+. The Na^+-dependence of the trans-stimulatory effect of VF-6 was assessed by injecting the oocytes with VF-6 suspended in ND96 buffer (pH 5.5) or a Na^+-free version of this buffer (the Na^+ was replaced with choline).
At least four independent experiments were performed (on different days and using oocytes from different frogs), and within each experiment measurements were made from ten oocytes per treatment.

[2] = target: PfCRT^Dd2 (Plasmodium falciparum, UniProt Q9N623, A220S/I356T/K76T/M74I/N326S/N75E/Q271E/R371I); assay: cell-based; type: cell-based; settings: for Total [3H]CQ transport, trans-stimulation by injected solute / Trans-stimulation data: total [3H]CQ transport: PfCRTDd2 oocytes, footnote b: highest intracellular concentration tested was 30 mM (solubility); for Trans-stimulation data: total [3H]CQ transport: normalised to the oocyte type control (control = 100); for PfCRT-mediated [3H]CQ transport, trans-stimulation by injected solute, PfCRTDd2 / Trans-stimulation data: PfCRT-mediated [3H]CQ transport: footnote b: due to solubility the highest intracellular concentration tested was 30 mM; for PfCRT-mediated [3H]CQ transport, trans-stimulation by injected solute, PfCRTDd2: background subtracted; for Trans-stimulation data: PfCRT-mediated [3H]CQ transport: normalised to the oocyte type control = 100
Chain of PfCRT^Dd2 (Q9N623 whole entry A220S/I356T/K76T/M74I/N326S/N75E/Q271E/R371I): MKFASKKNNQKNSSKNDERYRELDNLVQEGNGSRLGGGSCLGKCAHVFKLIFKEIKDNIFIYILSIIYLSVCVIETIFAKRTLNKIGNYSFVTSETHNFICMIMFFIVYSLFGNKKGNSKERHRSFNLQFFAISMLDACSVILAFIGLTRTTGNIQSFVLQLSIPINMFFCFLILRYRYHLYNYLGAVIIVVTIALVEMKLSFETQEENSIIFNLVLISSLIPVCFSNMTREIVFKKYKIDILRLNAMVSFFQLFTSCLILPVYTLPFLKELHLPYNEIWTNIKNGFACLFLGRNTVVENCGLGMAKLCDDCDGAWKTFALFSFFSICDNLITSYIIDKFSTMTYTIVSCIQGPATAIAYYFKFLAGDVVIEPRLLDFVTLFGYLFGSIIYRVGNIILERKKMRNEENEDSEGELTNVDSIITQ
Outline: (§1)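 Transport measured in Xenopus oocytes expressing the transporters, 1.5 h at 27.5 °C in ND96 pH 5.5 unless noted. For trans-stimulation, VF-6 injected in 25 nL ND96 at pH 5.0–7.0 or Na^+-free (choline) buffer; intracellular levels based on ~400 nL oocyte volume. Ten oocytes per treatment, ≥4 experiments.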

[3] = target: PfCRT^Ecu1110 (Plasmodium falciparum, UniProt Q9N623, A220S/I356L/K76T/N326D); assay: cell-based; type: cell-based; settings: for Total [3H]CQ transport, trans-stimulation by injected solute / Trans-stimulation data: total [3H]CQ transport: PfCRTEcu1110 oocytes, footnote b: highest intracellular concentration tested was 30 mM (solubility); for Trans-stimulation data: total [3H]CQ transport: normalised to the oocyte type control (control = 100); for Trans-stimulation data: PfCRT-mediated [3H]CQ transport: footnote b: due to solubility the highest intracellular concentration tested was 30 mM, normalised to the oocyte type control = 100
Chain of PfCRT^Ecu1110 (Q9N623 whole entry A220S/I356L/K76T/N326D): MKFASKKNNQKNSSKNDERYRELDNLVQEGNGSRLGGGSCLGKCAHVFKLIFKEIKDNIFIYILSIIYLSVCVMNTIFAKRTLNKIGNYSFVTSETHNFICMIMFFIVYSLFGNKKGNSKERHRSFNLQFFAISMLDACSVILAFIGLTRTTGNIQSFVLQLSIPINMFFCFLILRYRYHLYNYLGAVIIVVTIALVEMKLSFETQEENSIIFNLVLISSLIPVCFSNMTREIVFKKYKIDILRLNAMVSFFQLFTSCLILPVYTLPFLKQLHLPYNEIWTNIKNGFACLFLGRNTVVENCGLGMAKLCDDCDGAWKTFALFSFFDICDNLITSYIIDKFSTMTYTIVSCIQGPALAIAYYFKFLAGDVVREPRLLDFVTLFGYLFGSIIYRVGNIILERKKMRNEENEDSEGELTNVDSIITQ
Outline: as §1

[4] = target: PfCRT^3D7 (Plasmodium falciparum, UniProt Q8IBZ9); assay: cell-based; type: cell-based; settings: for Trans-stimulation data: PfCRT-mediated [3H]CQ transport: 2nd of 6 trans-stimulation columns, footnote b: due to solubility the highest intracellular concentration tested was 30 mM, normalised to the oocyte type control = 100; for Total [3H]CQ transport, trans-stimulation by injected solute / Trans-stimulation data: total [3H]CQ transport: PfCRT3D7 oocytes, footnote b: highest intracellular concentration tested was 30 mM (solubility); for Trans-stimulation data: total [3H]CQ transport: normalised to the oocyte type control (control = 100)
Chain of PfCRT^3D7 (Q8IBZ9 59-398): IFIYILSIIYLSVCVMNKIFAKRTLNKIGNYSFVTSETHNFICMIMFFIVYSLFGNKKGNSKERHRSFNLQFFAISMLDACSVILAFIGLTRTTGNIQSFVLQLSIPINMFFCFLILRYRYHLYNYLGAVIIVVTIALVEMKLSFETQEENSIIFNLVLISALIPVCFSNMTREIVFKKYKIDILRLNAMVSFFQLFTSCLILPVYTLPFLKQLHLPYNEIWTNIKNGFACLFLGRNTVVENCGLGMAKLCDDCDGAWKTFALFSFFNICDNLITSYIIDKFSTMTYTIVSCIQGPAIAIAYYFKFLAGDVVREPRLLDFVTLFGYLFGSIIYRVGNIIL
Outline: as §1

[5] = target: T1, PfNT1 (Plasmodium falciparum, UniProt Q8IDM6); assay: cell-based; type: cell-based; settings: PfNT1 oocytes, footnote b: highest intracellular concentration tested was 30 mM (solubility); for Trans-stimulation data: total [3H]CQ transport: normalised to the oocyte type control (control = 100)
T1 construct: expressed in transfected cells; host or cells: Xenopus laevis oocytes (stage V-VI), cRNA-injected
T1 sequence (Q8IDM6 whole entry): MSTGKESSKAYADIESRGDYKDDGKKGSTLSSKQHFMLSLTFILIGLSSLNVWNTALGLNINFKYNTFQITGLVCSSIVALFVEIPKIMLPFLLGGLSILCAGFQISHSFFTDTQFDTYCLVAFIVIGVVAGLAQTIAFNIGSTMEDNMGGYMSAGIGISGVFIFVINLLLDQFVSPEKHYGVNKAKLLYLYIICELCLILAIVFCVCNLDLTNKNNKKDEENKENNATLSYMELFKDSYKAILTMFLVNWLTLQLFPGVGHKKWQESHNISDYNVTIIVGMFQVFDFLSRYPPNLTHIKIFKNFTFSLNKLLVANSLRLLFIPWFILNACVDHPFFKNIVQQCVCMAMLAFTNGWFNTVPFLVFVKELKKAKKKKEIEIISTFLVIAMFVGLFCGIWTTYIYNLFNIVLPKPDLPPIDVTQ
Outline: as §1

Row | Sequence | Total [3H]CQ transport, trans-stimulation by injected solute [1] | Trans-stimulation data: total [3H]CQ transport [1] [b] | Total [3H]CQ transport, trans-stimulation by injected solute [2] | Trans-stimulation data: total [3H]CQ transport [2] [b] | PfCRT-mediated [3H]CQ transport, trans-stimulation by injected solute, PfCRTDd2 [2] | Trans-stimulation data: PfCRT-mediated [3H]CQ transport [2] [b] | Total [3H]CQ transport, trans-stimulation by injected solute [3] | Trans-stimulation data: total [3H]CQ transport [3] [b] | Trans-stimulation data: PfCRT-mediated [3H]CQ transport [3] [b] | Trans-stimulation data: PfCRT-mediated [3H]CQ transport [4] [b] | Total [3H]CQ transport, trans-stimulation by injected solute [4] | Trans-stimulation data: total [3H]CQ transport [4] [b] | Total [3H]CQ transport, trans-stimulation by injected solute [5] | Trans-stimulation data: total [3H]CQ transport [5] [b]
1 | LTPEEKSAVTALWGKVNVDEVGGEA [LA-25, additional peptide, 25 residues] | 2.5 ± 0.04b % of the PfCRTDd2 control | 101 ± 3.3 | 100 ± 3.3b % of the PfCRTDd2 control | 100 ± 3.3 | 97 ± 3.3b % of PfCRTDd2 control | 97 ± 3.3 | 33 ± 1.8b % of the PfCRTDd2 control | 101 ± 4.3 | 98 ± 4.2 | 97 ± 3.1 | 3.1 ± 0.02b % of the PfCRTDd2 control | 99 ± 2.6 | 2.7 ± 0.07b % of the PfCRTDd2 control | 101 ± 4.1
2 | NAVAHVDDMPNALSALSDLH [NH-20, additional peptide, 20 residues] | 3.3 ± 0.07b % of the PfCRTDd2 control | 101 ± 4.8 | 99 ± 2.8b % of the PfCRTDd2 control | 99 ± 2.8 | 97 ± 3.6b % of PfCRTDd2 control | 97 ± 3.6 | 32 ± 1.7b % of the PfCRTDd2 control | 100 ± 3.5 | 97 ± 3.2 | 95 ± 3.2 | 3.0 ± 0.05b % of the PfCRTDd2 control | 99 ± 3.5 | 3.2 ± 0.07b % of the PfCRTDd2 control | 100 ± 3.6
3 | SFGDLSTPDAVMG [SG-13] | 3.0 ± 0.04b % of the PfCRTDd2 control | 100 ± 3.6 | 100 ± 2.9b % of the PfCRTDd2 control | 100 ± 2.9 | 98 ± 3.0b % of PfCRTDd2 control | 98 ± 3.0 | 33 ± 1.4b % of the PfCRTDd2 control | 101 ± 2.4 | 99 ± 1.8 | 97 ± 1.9 | 3.1 ± 0.05b % of the PfCRTDd2 control | 99 ± 2.5 | 2.9 ± 0.09b % of the PfCRTDd2 control | 98 ± 2.4

Source: paper PMC7413254 (Nature Communications, 2020)
